Consider 5 compounds from ChEMBL document CHEMBL3769345, “Rapid Synthesis of Boc-2',6'-dimethyl-l-tyrosine and Derivatives and Incorporation into Opioid Peptidomimetics” (ACS Med Chem Lett, 2015).

The source made the active and inactive calls. The rule behind the calls is not given here.

Assay [1] has as its target Mu-type opioid receptor (Rattus norvegicus) (UniProt P33535). As to the kind of experiment: Agonist activity at rat MOR expressed in rat C6 cells at 10 uM after 1 hr by [35S]GTPgammaS binding assay relative to DAMGO. It is filed as functional, cell-based. On the technique in general: GTPγS resists hydrolysis and so accumulates on activated G proteins.
Assay [2] concerns the target T1, Mu-type opioid receptor (Rattus norvegicus, UniProt P33535). As to the kind of experiment: Displacement of [3H]diprenorphine from rat MOR expressed in rat C6 cells after 1 hr by liquid scintillation counting method. In kind it is cell-based. On the technique in general: Loss of bound radioactivity is the signal in a displacement assay; it reports binding, not function.

The target of assay [3] is T2, Kappa-type opioid receptor (Homo sapiens, UniProt P41145). The experiment in a line: Displacement of [3H]diprenorphine from human KOR expressed in CHO cells after 1 hr by liquid scintillation counting method. It is filed as cell-based.
T2 sequence (P41145 whole entry): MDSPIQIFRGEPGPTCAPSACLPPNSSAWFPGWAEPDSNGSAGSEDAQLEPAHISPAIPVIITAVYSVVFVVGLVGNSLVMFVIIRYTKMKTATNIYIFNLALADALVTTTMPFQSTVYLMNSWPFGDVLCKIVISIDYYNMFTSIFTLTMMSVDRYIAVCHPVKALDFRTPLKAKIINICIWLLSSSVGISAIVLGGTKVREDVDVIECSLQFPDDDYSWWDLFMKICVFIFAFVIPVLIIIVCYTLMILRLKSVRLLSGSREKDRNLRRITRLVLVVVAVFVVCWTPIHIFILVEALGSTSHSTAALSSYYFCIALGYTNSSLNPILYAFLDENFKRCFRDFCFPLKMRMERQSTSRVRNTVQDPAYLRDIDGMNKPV
The target of assay [4] is T3, Delta-type opioid receptor (Rattus norvegicus, UniProt P33533). As to the kind of experiment: Displacement of [3H]diprenorphine from rat DOR expressed in rat C6 cells after 1 hr by liquid scintillation counting method. It is filed as cell-based.
T3 sequence (P33533 whole entry): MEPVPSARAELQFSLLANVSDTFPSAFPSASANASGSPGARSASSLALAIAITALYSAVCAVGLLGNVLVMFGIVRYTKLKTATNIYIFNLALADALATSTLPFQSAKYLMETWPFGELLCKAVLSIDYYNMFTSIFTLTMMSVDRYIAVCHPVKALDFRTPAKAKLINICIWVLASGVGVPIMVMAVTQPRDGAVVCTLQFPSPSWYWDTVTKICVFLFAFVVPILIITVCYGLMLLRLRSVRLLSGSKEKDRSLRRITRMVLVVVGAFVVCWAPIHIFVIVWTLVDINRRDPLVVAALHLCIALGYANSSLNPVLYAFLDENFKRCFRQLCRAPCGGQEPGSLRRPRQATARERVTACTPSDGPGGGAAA
In assay [5] the target is T2, Kappa-type opioid receptor. As to the kind of experiment: Agonist activity at human KOR expressed in CHO cells after 1 hr by [35S]GTPgammaS binding assay. In kind it is functional, cell-based.
Assay [6] addresses T3, Delta-type opioid receptor. As to the kind of experiment: Agonist activity at rat DOR expressed in rat C6 cells after 1 hr by [35S]GTPgammaS binding assay. It is filed as functional, cell-based.
Assay [7] deals with T2, Kappa-type opioid receptor. The experiment in a line: Agonist activity at human KOR expressed in CHO cells at 10 uM after 1 hr by [35S]GTPgammaS binding assay relative to U69,593. It is filed as functional, cell-based.
The target in assay [8] is T1, Mu-type opioid receptor. As to the kind of experiment: Agonist activity at rat MOR expressed in rat C6 cells after 1 hr by [35S]GTPgammaS binding assay. It is filed as functional, cell-based.
Assay [9] deals with Delta-type opioid receptor (Rattus norvegicus) (UniProt P33533). The experiment in a line: Agonist activity at rat DOR expressed in rat C6 cells at 10 uM after 1 hr by [35S]GTPgammaS binding assay relative to DPDPE. In kind it is functional, cell-based.
Chain of Delta-type opioid receptor (Rattus norvegicus) (P33533 whole entry): as above

Chain of Mu-type opioid receptor (Rattus norvegicus) (P33535 whole entry): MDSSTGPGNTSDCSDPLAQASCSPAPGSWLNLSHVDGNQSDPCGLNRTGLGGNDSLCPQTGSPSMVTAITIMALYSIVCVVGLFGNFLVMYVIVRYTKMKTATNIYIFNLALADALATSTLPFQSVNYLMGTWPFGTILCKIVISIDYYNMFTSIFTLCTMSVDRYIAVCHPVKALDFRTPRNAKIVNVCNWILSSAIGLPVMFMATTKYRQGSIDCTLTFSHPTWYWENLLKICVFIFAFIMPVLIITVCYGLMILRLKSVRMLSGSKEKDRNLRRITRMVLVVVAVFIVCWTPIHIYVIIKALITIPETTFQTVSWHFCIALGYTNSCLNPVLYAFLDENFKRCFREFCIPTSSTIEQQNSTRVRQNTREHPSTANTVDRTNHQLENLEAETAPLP
T1 sequence (P33535 whole entry): as above

Broadly, the Ki is the dissociation constant of the complex between target and ligand, obtained from inhibition or displacement. As usually defined, the EC50 is the concentration that produces a half-maximal response. For `Cc1cc(C[C@H](N)C(=O)N[C@@H]2CCNc3ccc(Cc4ccccc4)cc32)c(C)cc1O`, the max activation worked out at 89% in [1], 22% in [7] and 53% in assay [9]. Also, the inhibitory constant (Ki) at Mu-type opioid receptor [2] was 6.5 nM; in assay [3], 730 nM; in assay [4], 390 nM. In addition, the concentration giving a half-maximal response (EC50) in assay [5] amounted to 370 nM; in assay [6] (read-out: EC50) it was 5900 nM; on Mu-type opioid receptor [8] it was 39 nM.

For the compound `Cc1cc(O)ccc1C[C@H](N)C(=O)N[C@@H]1CCNc2ccc(Cc3ccccc3)cc21`, the max activation was found to be 69% in assay [1] and 41% in [7]. Further, the Ki at Mu-type opioid receptor [2] came out at 1.7 nM; in [3], 96 nM; in assay [4], 42 nM. The 50% effective concentration (EC50) was 2400 nM in assay [5], “Not Active” in assay [6] (c6) and 44 nM on Mu-type opioid receptor [8].

Consider `N[C@@H](Cc1ccc2cccc(O)c2c1)C(=O)N[C@@H]1CCNc2ccc(Cc3ccccc3)cc21`, for which the Ki worked out at 440 nM on Mu-type opioid receptor [2], 2500 nM in [3] and 1600 nM in [4].

For `Cc1cccc(C)c1C[C@H](N)C(=O)N[C@@H]1CCNc2ccc(Cc3ccccc3)cc21`, the results for the max activation in assay [1] and in assay [7] were 86% and 38%, respectively. The Ki at Mu-type opioid receptor [2] turned out to be 18 nM; in assay [3] it was 130 nM; in [4], 660 nM. Besides, the values for the EC50 (in [5]; in assay [6] (c6); on Mu-type opioid receptor [8]) were 4800 nM, “Not Active” and 280 nM, respectively.

As to `N[C@@H](Cc1c(Cl)cc(O)cc1Cl)C(=O)N[C@@H]1CCNc2ccc(Cc3ccccc3)cc21`, the max activation stood at 83% in assay [1] and 32% in [7]. Moreover, the inhibitory constant (Ki) at Mu-type opioid receptor [2] came out at 0.47 nM; in [3], 35 nM; in assay [4], 37 nM. Also, the figures for the EC50 (in assay [5]; in assay [6] (c6); on Mu-type opioid receptor [8]) were 1200 nM, “Not Active” and 33 nM, respectively. In [9], the max activation result is “inactive”.
